Test results published in ChEMBL document CHEMBL4630906, “Data for DCP probe BAY-3153” (2021).
Each block holds one compound with its values, some of them ahead of it. Calls of active or inactive are those of the source. No cut-off for these calls is given here.

How the values were obtained:
[1] = target: T1, Kappa-type opioid receptor (Homo sapiens, UniProt P41145); test: GPCRScan assay: inhibition of KOR; design: radioligand conc. used [nm] 0.6 – 1.2, parental cells stable HEK
[2] = GPCRScan assay: inhibition of GABA/PBR; design: species or system Rattus norvegicus; radioligand conc. used [nm] 0.3 – 2.0, parental cells brain tissue
[3] = target: T2, Sigma intracellular receptor 2 (Homo sapiens, UniProt Q5BJF2); test: GPCRScan assay: inhibition of Sigma 2; design: radioligand conc. used [nm] 5.0, parental cells HEKT
T2 sequence (Q5BJF2 whole entry): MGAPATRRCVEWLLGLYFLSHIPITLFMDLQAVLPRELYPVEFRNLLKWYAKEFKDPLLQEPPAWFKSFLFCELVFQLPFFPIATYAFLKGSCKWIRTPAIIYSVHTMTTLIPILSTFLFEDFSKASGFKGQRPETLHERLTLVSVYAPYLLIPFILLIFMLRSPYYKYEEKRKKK

[4] = target: T3, Sigma non-opioid intracellular receptor 1 (Homo sapiens, UniProt Q99720); test: GPCRScan assay: inhibition of Sigma 1; design: radioligand conc. used [nm] 4.0 – 5.0, parental cells HEKT
T3 sequence (Q99720 whole entry): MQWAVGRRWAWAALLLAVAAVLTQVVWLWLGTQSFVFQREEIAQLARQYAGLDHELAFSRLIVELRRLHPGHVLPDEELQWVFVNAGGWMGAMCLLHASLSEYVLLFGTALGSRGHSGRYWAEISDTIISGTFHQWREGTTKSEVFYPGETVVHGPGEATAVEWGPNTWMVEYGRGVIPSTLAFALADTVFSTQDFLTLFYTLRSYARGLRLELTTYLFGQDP

[5] = target: C-C chemokine receptor type 1 (Homo sapiens, UniProt P32246); test: CCR1 cellular Ca2+-flux assay; assay type: functional
[6] = target: 5-hydroxytryptamine receptor 1A (Homo sapiens) (UniProt P08908); conditions: Compound concentration 10.0 uM
[7] = target: 5-hydroxytryptamine receptor 1B (Homo sapiens) (UniProt P28222); conditions: Compound concentration 10.0 uM
[8] = target: 5-hydroxytryptamine receptor 1D (Homo sapiens) (UniProt P28221); conditions: Compound concentration 10.0 uM
[9] = target: 5-hydroxytryptamine receptor 2A (Homo sapiens) (UniProt P28223); conditions: Compound concentration 10.0 uM
[10] = target: 5-hydroxytryptamine receptor 2B (Homo sapiens) (UniProt P41595); conditions: Compound concentration 10.0 uM
[11] = target: 5-hydroxytryptamine receptor 2C (Homo sapiens) (UniProt P28335); conditions: Compound concentration 10.0 uM
5-hydroxytryptamine receptor 2C (Homo sapiens), sequence (P28335 whole entry): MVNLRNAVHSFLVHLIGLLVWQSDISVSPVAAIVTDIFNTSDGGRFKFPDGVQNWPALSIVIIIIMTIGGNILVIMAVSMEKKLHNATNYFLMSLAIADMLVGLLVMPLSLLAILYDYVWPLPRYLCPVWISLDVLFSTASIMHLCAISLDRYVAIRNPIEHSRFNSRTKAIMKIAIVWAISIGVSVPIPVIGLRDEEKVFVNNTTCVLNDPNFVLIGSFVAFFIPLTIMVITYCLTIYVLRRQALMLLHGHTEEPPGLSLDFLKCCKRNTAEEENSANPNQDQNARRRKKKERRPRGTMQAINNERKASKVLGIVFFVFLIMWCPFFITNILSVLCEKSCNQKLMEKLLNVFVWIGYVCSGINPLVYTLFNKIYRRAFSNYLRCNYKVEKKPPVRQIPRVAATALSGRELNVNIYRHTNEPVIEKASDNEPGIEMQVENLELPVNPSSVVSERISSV

[12] = target: 5-hydroxytryptamine receptor 3A (Homo sapiens) (UniProt P46098); conditions: Compound concentration 10.0 uM
[13] = target: 5-hydroxytryptamine receptor 5A (Homo sapiens) (UniProt P47898); conditions: Compound concentration 10.0 uM
[14] = target: 5-hydroxytryptamine receptor 6 (Homo sapiens) (UniProt P50406); conditions: Compound concentration 10.0 uM
5-hydroxytryptamine receptor 6 (Homo sapiens), sequence (P50406 whole entry): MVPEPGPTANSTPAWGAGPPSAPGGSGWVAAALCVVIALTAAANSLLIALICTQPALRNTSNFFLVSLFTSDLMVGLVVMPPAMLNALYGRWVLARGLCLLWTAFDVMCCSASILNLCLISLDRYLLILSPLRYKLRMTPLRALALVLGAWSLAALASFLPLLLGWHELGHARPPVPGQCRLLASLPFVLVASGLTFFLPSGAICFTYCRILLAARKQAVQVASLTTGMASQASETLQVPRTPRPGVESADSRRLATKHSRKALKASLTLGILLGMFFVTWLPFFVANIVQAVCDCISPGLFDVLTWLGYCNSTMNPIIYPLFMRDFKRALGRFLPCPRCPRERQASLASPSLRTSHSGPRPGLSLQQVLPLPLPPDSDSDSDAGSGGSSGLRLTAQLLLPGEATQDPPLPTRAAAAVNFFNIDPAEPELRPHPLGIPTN

[15] = target: D(1A) dopamine receptor (Homo sapiens) (UniProt P21728); conditions: Compound concentration 10.0 uM
[16] = target: D(2) dopamine receptor (Homo sapiens) (UniProt P14416); conditions: Compound concentration 10.0 uM
[17] = target: D(3) dopamine receptor (Homo sapiens) (UniProt P35462); conditions: Compound concentration 10.0 uM
[18] = target: D(4) dopamine receptor (Homo sapiens) (UniProt P21917); conditions: Compound concentration 10.0 uM
[19] = target: D(1B) dopamine receptor (Homo sapiens) (UniProt P21918); conditions: Compound concentration 10.0 uM
[20] = target: T4, Sodium-dependent serotonin transporter (Homo sapiens, UniProt P31645); conditions: Compound concentration 10.0 uM
Target sequence in this assay (P31645 whole entry, looked up): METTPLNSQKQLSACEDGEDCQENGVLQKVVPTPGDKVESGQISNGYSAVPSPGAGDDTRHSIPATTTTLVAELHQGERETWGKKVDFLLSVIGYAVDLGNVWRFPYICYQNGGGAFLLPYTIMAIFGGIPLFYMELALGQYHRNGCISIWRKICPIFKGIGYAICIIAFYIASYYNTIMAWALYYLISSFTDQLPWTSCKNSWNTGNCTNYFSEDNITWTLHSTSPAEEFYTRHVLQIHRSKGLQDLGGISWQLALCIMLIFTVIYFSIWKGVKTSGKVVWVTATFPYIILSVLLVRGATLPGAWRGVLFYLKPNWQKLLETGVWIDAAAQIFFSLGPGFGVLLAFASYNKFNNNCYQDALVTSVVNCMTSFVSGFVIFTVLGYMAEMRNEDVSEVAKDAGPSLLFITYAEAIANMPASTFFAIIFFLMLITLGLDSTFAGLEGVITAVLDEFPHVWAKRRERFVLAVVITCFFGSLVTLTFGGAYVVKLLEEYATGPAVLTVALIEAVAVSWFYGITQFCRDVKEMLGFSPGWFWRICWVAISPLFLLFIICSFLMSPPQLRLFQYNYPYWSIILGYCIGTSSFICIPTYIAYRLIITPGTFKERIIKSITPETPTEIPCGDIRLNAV

[21] = target: Sodium-dependent noradrenaline transporter (Homo sapiens) (UniProt P23975); conditions: Compound concentration 10.0 uM
[22] = target: Sodium-dependent dopamine transporter (Homo sapiens) (UniProt Q01959); conditions: Compound concentration 10.0 uM
[23] = target: Mu-type opioid receptor (Homo sapiens) (UniProt P35372); conditions: Compound concentration 10.0 uM
Mu-type opioid receptor (Homo sapiens), sequence (P35372 whole entry): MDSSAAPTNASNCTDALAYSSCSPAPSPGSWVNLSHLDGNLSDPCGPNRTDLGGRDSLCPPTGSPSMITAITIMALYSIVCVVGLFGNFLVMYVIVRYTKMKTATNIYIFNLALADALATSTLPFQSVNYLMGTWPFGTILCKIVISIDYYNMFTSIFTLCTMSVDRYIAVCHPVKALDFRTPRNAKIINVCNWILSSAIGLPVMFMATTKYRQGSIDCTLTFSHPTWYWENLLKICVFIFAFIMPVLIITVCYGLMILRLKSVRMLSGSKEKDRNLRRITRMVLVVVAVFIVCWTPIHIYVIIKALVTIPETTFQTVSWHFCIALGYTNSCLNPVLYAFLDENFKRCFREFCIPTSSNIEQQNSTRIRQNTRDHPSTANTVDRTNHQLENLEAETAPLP

[24] = target: Delta-type opioid receptor (Homo sapiens) (UniProt P41143); conditions: Compound concentration 10.0 uM
[25] = target: T1, Kappa-type opioid receptor; conditions: Compound concentration 10.0 uM
[26] = target: T5, GABA-A receptor; anion channel (Rattus norvegicus) (UniProt O09028+P15431+P18506+P18508+P19969+P20236+P23574+P23576+P28471+P28473+P30191+P62813+P63079+P63138+Q91ZM7+Q9ES14); conditions: Compound concentration 10.0 uM
[27] = target: Histamine H1 receptor (Homo sapiens) (UniProt P35367); conditions: Compound concentration 10.0 uM
[28] = target: Histamine H2 receptor (Homo sapiens) (UniProt P25021); conditions: Compound concentration 10.0 uM
Histamine H2 receptor (Homo sapiens), sequence (P25021 whole entry): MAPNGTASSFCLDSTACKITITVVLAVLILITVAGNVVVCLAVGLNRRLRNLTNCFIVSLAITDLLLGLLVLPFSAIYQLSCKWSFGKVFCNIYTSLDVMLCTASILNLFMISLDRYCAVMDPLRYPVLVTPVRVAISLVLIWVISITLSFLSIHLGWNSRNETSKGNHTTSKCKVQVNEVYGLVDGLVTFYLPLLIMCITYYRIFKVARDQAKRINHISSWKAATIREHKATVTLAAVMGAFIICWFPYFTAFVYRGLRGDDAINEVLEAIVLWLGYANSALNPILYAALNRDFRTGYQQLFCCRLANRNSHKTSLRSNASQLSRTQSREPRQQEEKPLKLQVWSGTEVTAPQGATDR

[29] = target: Histamine H3 receptor (Homo sapiens) (UniProt Q9Y5N1); conditions: Compound concentration 10.0 uM
[30] = target: Alpha-1A adrenergic receptor (Homo sapiens) (UniProt P35348); conditions: Compound concentration 10.0 uM
[31] = target: Alpha-2C adrenergic receptor (Homo sapiens) (UniProt P18825); conditions: Compound concentration 10.0 uM
[32] = target: Beta-2 adrenergic receptor (Homo sapiens) (UniProt P07550); conditions: Compound concentration 10.0 uM
[33] = target: Muscarinic acetylcholine receptor M1 (Homo sapiens) (UniProt P11229); conditions: Compound concentration 10.0 uM
[34] = target: Muscarinic acetylcholine receptor M2 (Homo sapiens) (UniProt P08172); conditions: Compound concentration 10.0 uM
[35] = target: Muscarinic acetylcholine receptor M3 (Homo sapiens) (UniProt P20309); conditions: Compound concentration 10.0 uM
Muscarinic acetylcholine receptor M3 (Homo sapiens), sequence (P20309 whole entry, looked up): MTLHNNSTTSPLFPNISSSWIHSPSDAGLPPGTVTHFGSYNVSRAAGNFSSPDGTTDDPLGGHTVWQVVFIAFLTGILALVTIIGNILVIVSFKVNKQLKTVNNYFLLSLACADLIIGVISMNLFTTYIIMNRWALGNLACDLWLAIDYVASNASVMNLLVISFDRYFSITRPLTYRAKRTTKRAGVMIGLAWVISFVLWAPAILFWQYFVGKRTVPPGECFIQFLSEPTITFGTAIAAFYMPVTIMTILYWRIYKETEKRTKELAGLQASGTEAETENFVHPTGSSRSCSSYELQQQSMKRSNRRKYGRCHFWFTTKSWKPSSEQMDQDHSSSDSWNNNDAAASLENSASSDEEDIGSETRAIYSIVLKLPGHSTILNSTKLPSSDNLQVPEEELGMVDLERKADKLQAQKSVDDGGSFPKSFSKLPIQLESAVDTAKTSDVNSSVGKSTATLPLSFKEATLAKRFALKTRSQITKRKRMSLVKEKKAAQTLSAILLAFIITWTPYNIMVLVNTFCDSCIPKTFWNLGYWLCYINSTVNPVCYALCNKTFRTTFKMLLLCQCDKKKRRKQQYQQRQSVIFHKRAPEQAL

[36] = target: Muscarinic acetylcholine receptor M4 (Homo sapiens) (UniProt P08173); conditions: Compound concentration 10.0 uM
[37] = target: Muscarinic acetylcholine receptor M5 (Homo sapiens) (UniProt P08912); conditions: Compound concentration 10.0 uM
Muscarinic acetylcholine receptor M5 (Homo sapiens), sequence (P08912 whole entry): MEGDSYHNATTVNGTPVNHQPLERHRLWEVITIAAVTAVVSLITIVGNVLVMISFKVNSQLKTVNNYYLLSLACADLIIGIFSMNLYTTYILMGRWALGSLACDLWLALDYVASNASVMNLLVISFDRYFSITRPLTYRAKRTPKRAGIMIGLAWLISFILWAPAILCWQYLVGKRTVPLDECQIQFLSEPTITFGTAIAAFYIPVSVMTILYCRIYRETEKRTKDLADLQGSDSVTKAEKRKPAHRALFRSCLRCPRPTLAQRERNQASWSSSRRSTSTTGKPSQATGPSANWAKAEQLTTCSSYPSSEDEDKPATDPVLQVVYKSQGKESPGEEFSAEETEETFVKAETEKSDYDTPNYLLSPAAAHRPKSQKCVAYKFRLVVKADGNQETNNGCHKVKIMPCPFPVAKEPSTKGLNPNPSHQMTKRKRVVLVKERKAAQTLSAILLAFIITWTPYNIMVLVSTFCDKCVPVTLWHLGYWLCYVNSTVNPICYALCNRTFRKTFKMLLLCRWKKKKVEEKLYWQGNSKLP

[38] = target: Beta-3 adrenergic receptor (Homo sapiens) (UniProt P13945); conditions: Compound concentration 10.0 uM
[39] = target: T5, GABA-A receptor; anion channel (Rattus norvegicus); conditions: Compound concentration 10.0 uM; remark: listed apart in the source
[40] = species on record: Rattus norvegicus; conditions: Compound concentration 10.0 uM
[41] = target: Alpha-1D adrenergic receptor (Homo sapiens) (UniProt P25100); conditions: Compound concentration 10.0 uM
Alpha-1D adrenergic receptor (Homo sapiens), sequence (P25100 whole entry): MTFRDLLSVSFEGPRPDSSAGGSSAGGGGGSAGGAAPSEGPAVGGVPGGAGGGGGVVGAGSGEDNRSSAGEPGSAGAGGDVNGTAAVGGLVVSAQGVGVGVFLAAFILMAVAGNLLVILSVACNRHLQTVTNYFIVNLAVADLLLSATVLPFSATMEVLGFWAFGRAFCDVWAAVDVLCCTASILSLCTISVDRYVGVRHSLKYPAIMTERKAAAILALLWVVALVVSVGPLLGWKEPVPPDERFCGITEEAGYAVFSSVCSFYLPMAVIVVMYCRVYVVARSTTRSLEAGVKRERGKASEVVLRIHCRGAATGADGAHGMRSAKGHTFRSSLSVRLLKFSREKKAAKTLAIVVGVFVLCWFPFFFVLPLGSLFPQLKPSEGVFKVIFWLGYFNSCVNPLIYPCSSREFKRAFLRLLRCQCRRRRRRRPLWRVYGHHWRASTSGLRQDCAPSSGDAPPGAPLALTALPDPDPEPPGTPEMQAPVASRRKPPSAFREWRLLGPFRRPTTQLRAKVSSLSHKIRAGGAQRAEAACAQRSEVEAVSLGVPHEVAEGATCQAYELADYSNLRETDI

[42] = target: T2, Sigma intracellular receptor 2; conditions: Compound concentration 10.0 uM
[43] = target: T3, Sigma non-opioid intracellular receptor 1; conditions: Compound concentration 10.0 uM
[44] = target: D(4) dopamine receptor (Homo sapiens, UniProt P21917); test: GPCRScan assay: inhibition of D4; design: radioligand conc. used [nm] 0.6 – 1.7, parental cells Stable HEK
[45] = target: T4, Sodium-dependent serotonin transporter; test: GPCRScan assay: inhibition of SERT; design: radioligand conc. used [nm] 1.5 – 2.0, parental cells stable HEK
[46] = target: Alpha-2B adrenergic receptor (Homo sapiens, UniProt P18089); test: GPCRScan assay: inhibition of Alpha2B; design: radioligand conc. used [nm] 1.5 – 2.0, parental cells HEKT
[47] = target: Histamine H4 receptor (Homo sapiens) (UniProt Q9H3N8); conditions: Compound concentration 10.0 uM
[48] = target: Alpha-1B adrenergic receptor (Homo sapiens) (UniProt P35368); conditions: Compound concentration 10.0 uM
[49] = target: Alpha-2A adrenergic receptor (Homo sapiens) (UniProt P08913); conditions: Compound concentration 10.0 uM
[50] = target: Beta-1 adrenergic receptor (Homo sapiens) (UniProt P08588); conditions: Compound concentration 10.0 uM

T1 sequence (P41145 whole entry): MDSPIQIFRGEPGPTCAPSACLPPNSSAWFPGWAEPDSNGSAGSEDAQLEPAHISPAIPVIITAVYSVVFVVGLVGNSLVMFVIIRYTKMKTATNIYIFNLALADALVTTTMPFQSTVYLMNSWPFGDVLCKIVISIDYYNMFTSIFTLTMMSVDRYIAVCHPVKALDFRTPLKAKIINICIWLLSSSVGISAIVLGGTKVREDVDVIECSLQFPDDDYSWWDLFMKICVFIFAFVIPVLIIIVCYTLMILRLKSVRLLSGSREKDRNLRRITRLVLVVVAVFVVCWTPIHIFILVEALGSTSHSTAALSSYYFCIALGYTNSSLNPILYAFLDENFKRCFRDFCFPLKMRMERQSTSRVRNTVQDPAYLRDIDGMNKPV

Ki [1]: 3.01 µM
Ki [2]: 1.81 µM
pKi [2]: 5.74
Ki [3]: 1.48 µM
Ki [4]: 1.83 µM
IC50 [5]: 0.003 µM (active)
inhibition [6]: -9.03%
inhibition [7]: -2.86%
inhibition [8]: -2.08%
inhibition [9]: 6.74%
inhibition [10]: 10.5%
inhibition [11]: 4.08%
inhibition [12]: -1.97%
inhibition [13]: 1.7%
inhibition [14]: -8.16%
inhibition [15]: 40.3%
inhibition [16]: 7.26%
inhibition [17]: 1.58%
inhibition [18]: 15.5%
inhibition [19]: 2.54%
inhibition [20]: 33.4%
inhibition [21]: 1.24%
inhibition [22]: 3.92%
inhibition [23]: 5.82%
inhibition [24]: 10.3%
inhibition [25]: 53.6%
inhibition [26]: 18.6%
inhibition [27]: 11.2%
inhibition [28]: 27.7%
inhibition [29]: 17.3%
inhibition [30]: 17%
inhibition [31]: 2.17%
inhibition [32]: -4.63%
inhibition [33]: -5.67%
inhibition [34]: 8.64%
inhibition [35]: 8.61%
inhibition [36]: -3.29%
inhibition [37]: -4.29%
inhibition [38]: -5.38%
inhibition [39]: -6.17%
inhibition [40]: 54.2%
inhibition [41]: 7.09%
inhibition [42]: 83.6%
inhibition [43]: 85%
Compound: CCOc1cc(N2C3COCC2CN(C(=O)[C@H]2C[C@H](O)CN2c2ccc(Cl)cc2)C3)ccc1Cl [BAY-3153]

Ki [44]: 10 µM
Ki [45]: 1.46 µM
Ki [46]: 10 µM
Ki [3]: 2.17 µM
Ki [4]: 8.25 µM
IC50 [5]: 1.2 µM (not active)
inhibition [7]: -6.45%
inhibition [8]: -7.5%
inhibition [9]: 7.31%
inhibition [10]: 14.8%
inhibition [11]: -2.02%
inhibition [12]: -7.03%
inhibition [13]: -1.82%
inhibition [14]: 5.38%
inhibition [17]: 2.75%
inhibition [18]: 51.5%
inhibition [19]: 6.84%
inhibition [20]: 70.3%
inhibition [21]: -4.52%
inhibition [23]: 4.45%
inhibition [25]: 18.7%
inhibition [26]: 20%
inhibition [27]: 14.3%
inhibition [28]: 8.13%
inhibition [29]: 9.39%
inhibition [47]: -3.31%
inhibition [30]: 7.02%
inhibition [48]: 0.94%
inhibition [49]: 11.3%
inhibition [31]: 14.4%
inhibition [50]: 6.12%
inhibition [32]: -7.55%
inhibition [33]: -3.85%
inhibition [34]: 1.89%
inhibition [35]: 24.1%
inhibition [36]: -6.12%
inhibition [37]: -1.65%
inhibition [38]: -9.84%
inhibition [39]: 0.65%
inhibition [40]: -8.33%
inhibition [41]: -7.34%
inhibition [42]: 76.5%
inhibition [43]: 69.5%
Compound: O=C([C@H]1C[C@H](O)CN1c1ccc(Cl)cc1)N1CC2COCC(C1)N2Cc1ccc(Cl)cc1 [BAY-173]
